Each structure is given as a SMILES string.

Among the data in BindingDB's records for doi:10.1021/acs.jmedchem.6b01385 (Medical University of South Carolina, 2016) are IC50 values, retold here.

In this test the target is Histone deacetylase 3 (Homo sapiens, UniProt O15379). As to the kind of experiment: Allosteric inhibition of C-terminal His-tagged recombinant human HDAC3 expressed in Sf9 cells pre-incubated for 2 hrs before acetylated lysine-aminomethyl coumarin-BOC addition and measured after 2 hrs by fluorescence based assay.
Histone deacetylase 3, sequence (O15379 whole entry): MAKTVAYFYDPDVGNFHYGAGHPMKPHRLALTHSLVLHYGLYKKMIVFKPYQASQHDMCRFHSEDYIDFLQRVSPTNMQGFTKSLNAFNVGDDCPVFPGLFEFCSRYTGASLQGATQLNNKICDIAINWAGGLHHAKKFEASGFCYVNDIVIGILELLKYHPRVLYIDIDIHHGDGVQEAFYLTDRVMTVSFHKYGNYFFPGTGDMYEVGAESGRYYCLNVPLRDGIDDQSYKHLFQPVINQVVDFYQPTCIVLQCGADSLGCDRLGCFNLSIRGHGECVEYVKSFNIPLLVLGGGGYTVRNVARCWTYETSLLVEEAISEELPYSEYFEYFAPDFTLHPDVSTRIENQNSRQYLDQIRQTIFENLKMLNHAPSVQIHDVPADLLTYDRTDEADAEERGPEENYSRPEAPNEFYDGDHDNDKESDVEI

As for `CCCCCCCCCCNNC(=O)c1ccc(CNC(=O)c2ccccc2)cc1` [N-(4-(2-decylhydrazine-1-carbonyl)benzyl)benzamide], the IC50 is more than 10 µM.

As usually defined, the IC50 is the concentration that gives 50% inhibition.
